Reference: patent publication US4595698A, “Physiologically active substance, arphamenine and production thereof” (Zaidan Hojin Biseibutsu Kagaku Kenkyu Kai, priority 1982, dated 1986)
Where two headings read alike, the source gives them in different places.

Tests used:
aminopeptidase B = target: T1, aminopeptidase B (Rattus norvegicus, UniProt O09175); assay: Inhibition of aminopeptidase B (arginine-β-naphthylamide degradation, modified Hoppusu method); format: biochemical
T1 construct: an aminopeptidase B which had been purified with DEAE-Cellulose; from tissue
T1 sequence (O09175 1-650): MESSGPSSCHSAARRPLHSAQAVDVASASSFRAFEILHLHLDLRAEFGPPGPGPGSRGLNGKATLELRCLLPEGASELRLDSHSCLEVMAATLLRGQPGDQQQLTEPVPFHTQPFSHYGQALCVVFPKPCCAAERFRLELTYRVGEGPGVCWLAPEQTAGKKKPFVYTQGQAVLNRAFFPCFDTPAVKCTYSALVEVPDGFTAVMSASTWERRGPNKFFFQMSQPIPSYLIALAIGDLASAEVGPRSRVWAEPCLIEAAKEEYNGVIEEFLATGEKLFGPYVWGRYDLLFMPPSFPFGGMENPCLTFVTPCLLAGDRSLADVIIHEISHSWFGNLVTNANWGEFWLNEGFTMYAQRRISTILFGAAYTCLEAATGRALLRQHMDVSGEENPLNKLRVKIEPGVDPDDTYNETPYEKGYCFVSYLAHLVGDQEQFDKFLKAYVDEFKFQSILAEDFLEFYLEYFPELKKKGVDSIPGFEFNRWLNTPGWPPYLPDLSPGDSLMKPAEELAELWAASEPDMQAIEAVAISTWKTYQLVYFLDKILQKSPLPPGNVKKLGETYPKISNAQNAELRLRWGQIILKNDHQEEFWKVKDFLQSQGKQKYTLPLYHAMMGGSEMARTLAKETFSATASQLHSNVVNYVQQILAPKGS
Method: Tracing of arphamenine which was made during the course of cultivation of the arphamenine-producing strain, as well as during the course of recovery and purification of arphamenine was conducted by determining the anti-aminopeptidase B potency of arphamenine according to the following methods.
In detail, 0.5 ml of 0.1 M tris-hydrochloride buffer solution (pH 7.0) and 0.25 ml of a solution containing an arphamenine specimen were added to 0.25 ml of a substrate solution containing 0.002 M arginine-β-naphthylamide. The mixed solution so obtained was heated at 37° C. for 3 minutes. To the heated solution was added 5 μl of a solution of an aminopeptidase B which had been purified with DEAE-Cellulose according to the enzyme-purification technique of Hoppusu et al. The resulting mixture was reacted for 30 minutes at 37° C., and the resultant reaction mixture was admixed with 1 ml of 1.0 M acetate buffer solution (pH 4.2) containing Fast Garnet GBC (o-aminoazotoluene, diazonium salt) at a concentration of 1 mg/ml and a surfactant "Tween" 20 at a concentration of 10% to stop the enzyme reaction. After allowing the resulting mixture to stand at ambient temperature for 15 minutes, absorbance (a) at 525 nm of the reaction solution was measured. On the other hand, adsorbance (b) at 525 nm of a control reaction solution obtained from the blank test using the buffer solution containing no arphamenine was measured. Percent of inhibition to the aminopeptidase B was calculated from the equation [(b-a)/b]×100.

[1] = system: cell-mediated immunity (D.T.H. to SRBC); assay: D.T.H. to SRBC in tumor-bearing (Sarcoma 180) mice, Test Example 2 (1); format: in vivo, CDF1 mice; conditions: for Increased thickness of footpad / T/C (%): 4 days; for T/C (%): control = 100; for cell-mediated immunity depressed by the tumor (in words): tumor-bearing
Method: The swelling degree on the footpad in mice was evaluated in the same way as in Test Example 1, except that the CDF1 mice employed for the test previously received an intraperitoneal inoculation of 10^6 Sarcoma 180 cells, and that arphamenine A was administered intraperitoneally once daily for 4 consecutive days, including the day of inoculation of SRBC, and two days after the administration, SRBC was given to the treated mice to elicit D.T.H. response.

[2] = system: cell-mediated immunity (D.T.H. to picryl chloride); assay: D.T.H. to picryl chloride in mice bearing Ascites Sarcoma 180 tumor, Test Example 2 (2); format: in vivo, CDF1 mice; conditions: for Increased thickness of auricles / T/C (%): Table 4, 6 times/day, Day 1 to Day 8; for T/C (%): control = 100
Method: (2) D.T.H. to picryl chloride
In mice bearing Ascites Sarcoma 180 tumor, the effect of arphamenine A on D.T.H. to picryl chloride as antigen was investigated. Thus, 10^6 cells of Ascites Sarcoma 180 were transplanted intraperitoneally into CDF1 mice (12-week-old, female, 6 mice per group). The day of this transplantation was designated as Day 0. On Day 1, a shaved area (25 mm×15 mm) of the abdomen of the mice was immunized with 0.6 ml of a solution of 6% picryl chloride in ethanol which had been absorbed to a mass of cut absorbent cotton (20 mm×20 mm×2 mm in size). On Day 8, the thickness of the auricles of both ears was measured with a dial gauge to obtain a baseline value (a). Then, both auricles were elicited for the D.T.H. response with a solution of 1% picryl chloride in olive oil which had been absorbed to a mass of cut absorbent cotton (10 mm×4 mm×1 mm in size). On Day 9, the swelling degree on the elicited auricles was measured with a dial gauge to obtain a value (b). The baseline value (a) was subtracted from the value (b) to determine an increase in the thickness of the auricles (b-a) in the control group of mice (c).
Separately, 0.5, 0.05 or 0.005 mg/kg of the test compound dissolved in physiological saline was orally administered to another group of CDF1 mise 6 times/day for consecutive days of from Day 1 to Day 8 inclusive, and then the picryl chloride elicitation was carried out with the treated group of mice in the same way as in the control group of mice. The increase in the thickness of both auricles (b'-a') in this treated group of mice (T) was determined in the same way as the control group of mice.
The rate (T/C, %) of the increased thickness of auricles of the treated group (T) in term of that for the control group (c) was calculated from the following equation [formula]
Assumed that the value for the control group was evaluated to be 100%, the activity of the test compound to potentiate cell-mediated immunity was estimated.

Ehrlich Solid Tumor = assay: Anti-tumor activity against Ehrlich Solid Tumor, Test Example 3; format: in vivo, ddY mice; conditions: for Average size of tumor / Average weight of tumor / TIR (%), tumor size / TIR (%), tumor weight: 7 times on alternate days, day 30; for host-mediated anti-tumor effect (in words): summary statement
Method: Anti-tumor activity of arphamenine against Ehrlich Solid Tumor.
3×10^6 cells of Ehrlich ascites tumor were transplanted subcutaneously into the flank of ddY mice (8-week old, female, 5 mice per group). The day of this transplantation was designated as Day 0. Then, 0.5, 0.05 or 0.005 mg/kg of the test compound dissolved in physiological saline solution was orally administered to the mice a total of 7 times on alternate days until Day 15, beginning on Day 1. On day 30, the size (shorter diameter^2 ×longer diameter/2) of tumor and the weight of tumor were measured. The results in this treated group of mice were compared with those in the control group of mice to calculate tumor inhibition rate (TIR, %) according to the following equation: [formula] where C denotes the size or weight of tumor in the control group, and T denotes the size or weight of tumor in the treated group.

mice = assay: Acute toxicity tests in mice by intravenous injection; format: in vivo
Method: Acute toxicity tests in mice by intravenous injection have shown that no deaths are caused by arphamenine A in an iv. dose of 250 mg/kg or by arphamenine B in an iv. dose of 150 mg/kg. […] These new compounds are therefore useful as immunopotentiators and anti-tumor immunomodulators or as adjuvants to various chemotherapeutic agents for use in the treatment of carcinomas.

[3] = system: cell-mediated immunity (D.T.H. response to sheep red blood cells); assay: Delayed Type Hypersensitivity (D.T.H.) to SRBC in normal mice, Test Example 1; conditions: for Increased thickness of footpad / T/C (%): single oral dose; for T/C (%): control = 100
Method: Effect of arphamenine on cell-mediated immunity in normal mice.
Effect of arphamenines A and B on the cell-mediated immunity was tested according to a known Delayed Type Hypersensitivity (D.T.H.) technique (see P. H. Lagrange, G. B. Mackaness and T. E. Miller: "J. Exp. Med.", 139, 1529~1539 (1974)) using mice immunized with sheep red blood cells (SRBC) as the antigen inoculated to the foot-pad pad of the mice.
Thus, 10^8 SRBC suspended in 0.05 ml of physiological saline was inoculated by subcutaneous injection to the one side of hind footpad of CDF1 mice (5 mice per group, female, 8-weeks old) to make immunization. At the time of this immunization, an aqueous solution containing 5 mg/kg, 0.5 mg/kg, 0.05 mg/kg or 0.005 mg/kg of arphamenine A or B was administered orally at a single dose to each test mice. 4 Days after the immunization, 10^8 SRBC in 0.05 ml of physiological saline was injected subcutaneously into the other side of the hind footpad of the test mice for elicitation of D.T.H. response. 24 Hours after the eliciting injection, the thickness (in mm) of the hind footpad having received the eliciting injection of SRBC was measured with calipers. At the same time, the thickness of the other side of footpad which had not received the eliciting injection of SRBC was also measured in each mouse.
The increase of footpad thickness (the swelling degree) was calculated by the following equation: [formula]
The effect of arphamenine on the DTH response was evaluated by the following equation: [formula]
Therefore, the assumption was here that the value for the control mice (untreated) was evaluated to be 100%.

[4] = crude powder after CM-Sephadex C-25, Example 3, read-out: anti-aminopeptidase B potency, IC50 (converted)
[5] = light yellow powder after Biogel P-2, Examples 8 and 9, read-out: anti-aminopeptidase B potency (IC50) (converted)
[6] = Table 3, fourth line, 0.005 mg/kg intraperitoneally once daily
[7] = Table 3, third line, 0.005 mg/kg (so in the source) intraperitoneally once daily
[8] = Table 3, 0.5 mg/kg intraperitoneally once daily
[9] = Table 3, 5 mg/kg intraperitoneally once daily
[10] = 0.05 mg/kg orally, **P < 0.05 (Ttest)
[11] = 0.05 mg/kg orally, *P < 0.1 (Ttest)

N=C(N)NCCCC(N)C(=O)CC(Cc1ccccc1)C(=O)O (centres unmarked) [Arphamenine A]
IC50 (aminopeptidase B; colorless, pure powder, Examples 4 and 5, read-out: anti-aminopeptidase B potency, IC50 (converted)): 16.9 nM | IC50 (aminopeptidase B; colorless, pure product, pH 7.0, 37° C., 30 minutes, read-out: IC50, dose giving 50% inhibition to the aminopeptidase B (converted)): 15.6 nM | IC50 (aminopeptidase B; [4]): 20.3 nM | IC50 (aminopeptidase B; [5]): 93.6 nM | Increased thickness of footpad [1, 6]: 5.9 ± 0.79 × 0.1 mm | T/C (%) [1, 6]: 131% | Increased thickness of footpad [1, 7]: 6.5 ± 1.29 × 0.1 mm | T/C (%) [1, 7]: 144% | Increased thickness of footpad [1, 8]: 6.7 ± 1.03 × 0.1 mm | T/C (%) [1, 8]: 149% | Increased thickness of footpad [1, 9]: 5.8 ± 1.19 × 0.1 mm | T/C (%) [1, 9]: 129% | cell-mediated immunity depressed by the tumor (in words) [1]: modulate the cell-mediated immunity depressed by the tumor | activity to enhance cell-mediated immunity (in words) ([2]; 0.05 mg/kg): a significant activity to enhance cell-mediated immunity was obtained | Increased thickness of auricles ([2]; 0.005 mg/kg orally): 6.40 ± 0.63 × 0.1 mm | T/C (%) ([2]; 0.005 mg/kg orally): 143.8% | Increased thickness of auricles ([2]; 0.05 mg/kg orally, *P <0.05): 7.40 ± 0.72 × 0.1 mm | T/C (%) ([2]; 0.05 mg/kg orally): 166.3% | Increased thickness of auricles ([2]; 0.5 mg/kg orally): 6.05 ± 0.97 × 0.1 mm | T/C (%) ([2]; 0.5 mg/kg orally): 136.0% | Average size of tumor (Ehrlich Solid Tumor; 0.005 mg/kg orally): 2378 ± 3138 mm^3 | Average weight of tumor (Ehrlich Solid Tumor; 0.005 mg/kg orally): 1.62 ± 1.44 g | TIR (%), tumor size (Ehrlich Solid Tumor; 0.005 mg/kg orally): 55.2% | TIR (%), tumor weight (Ehrlich Solid Tumor; 0.005 mg/kg orally): 39.3% | TIR (%), tumor size (Ehrlich Solid Tumor; 0.05 mg/kg orally): 41.2% | TIR (%), tumor weight (Ehrlich Solid Tumor; 0.05 mg/kg orally): 37.8% | Average weight of tumor (Ehrlich Solid Tumor; [10]): 1.66 ± 1.50 g | Average size of tumor (Ehrlich Solid Tumor; [11]): 3120 ± 3584 mm^3 | Average size of tumor (Ehrlich Solid Tumor; 0.5 mg/kg orally): 4467 ± 4311 mm^3 | Average weight of tumor (Ehrlich Solid Tumor; 0.5 mg/kg orally): 2.62 ± 1.90 g | TIR (%), tumor size (Ehrlich Solid Tumor; 0.5 mg/kg orally): 15.8% | TIR (%), tumor weight (Ehrlich Solid Tumor; 0.5 mg/kg orally): 1.9% | host-mediated anti-tumor effect in terms of tumor size and tumor weight (in words) (Ehrlich Solid Tumor; 0.05 and 0.005 mg/kg): produced a host-mediated anti-tumor effect | host-mediated anti-tumor effect (in words) (Ehrlich Solid Tumor): exhibit a host-mediated anti-tumor effect | deaths, acute toxicity (mice; iv. dose of 250 mg/kg): no deaths | Increased thickness of footpad ([3]; Table 1, 0.005 mg/kg): 11.9 ± 1.00 × 0.1 mm | T/C (%) ([3]; Table 1, 0.005 mg/kg): 143% | Increased thickness of footpad ([3]; Table 1, 0.05 mg/kg): 13.0 ± 0.97 × 0.1 mm | T/C (%) ([3]; Table 1, 0.05 mg/kg): 157% | Increased thickness of footpad ([3]; Table 1, 0.5 mg/kg): 11.5 ± 1.29 × 0.1 mm | T/C (%) ([3]; Table 1, 0.5 mg/kg): 139% | Increased thickness of footpad ([3]; Table 1, 5 mg/kg): 10.4 ± 0.77 × 0.1 mm | T/C (%) ([3]; Table 1, 5 mg/kg): 125% | cell-mediated immunity in normal animals (in words) [3]: potentiate the cell-mediated immunity in normal animals

N=C(N)NCCCC(N)C(=O)CC(Cc1ccc(O)cc1)C(=O)O (centres unmarked) [Arphamenine B]
IC50 (aminopeptidase B; [4]): 6.84 nM | IC50 (aminopeptidase B; [5]): 56.5 nM | cell-mediated immunity depressed by the tumor (in words) [1]: modulate the cell-mediated immunity depressed by the tumor | host-mediated anti-tumor effect (in words) (Ehrlich Solid Tumor): exhibit a host-mediated anti-tumor effect | deaths, acute toxicity (mice; iv. dose of 150 mg/kg): no deaths | Increased thickness of footpad ([3]; Table 2, 0.005 mg/kg): 12.4 ± 1.40 × 0.1 mm | T/C (%) ([3]; Table 2, 0.005 mg/kg): 143% | Increased thickness of footpad ([3]; Table 2, 0.05 mg/kg): 14.0 ± 1.33 × 0.1 mm | T/C (%) ([3]; Table 2, 0.05 mg/kg): 161% | Increased thickness of footpad ([3]; Table 2, 0.5 mg/kg): 14.7 ± 1.74 × 0.1 mm | T/C (%) ([3]; Table 2, 0.5 mg/kg): 169% | Increased thickness of footpad ([3]; Table 2, 5 mg/kg): 13.7 ± 1.77 × 0.1 mm | T/C (%) ([3]; Table 2, 5 mg/kg): 157% | cell-mediated immunity in normal animals (in words) [3]: potentiate the cell-mediated immunity in normal animals

CC(C)C[C@H](NC(=O)[C@@H](O)[C@H](N)Cc1ccccc1)C(=O)O [Bestatin, reference compound]
Increased thickness of footpad [1, 9]: 6.0 ± 0.96 × 0.1 mm | T/C (%) [1, 9]: 133% | TIR (%), tumor size (Ehrlich Solid Tumor; 0.05 mg/kg orally): 60.6% | TIR (%), tumor weight (Ehrlich Solid Tumor; 0.05 mg/kg orally): 44.9% | Average weight of tumor (Ehrlich Solid Tumor; [10]): 1.47 ± 0.92 g | Average size of tumor (Ehrlich Solid Tumor; [11]): 2089 ± 1946 mm^3 | Increased thickness of footpad ([3]; Table 1, 0.5 mg/kg): 12.5 ± 1.24 × 0.1 mm | T/C (%) ([3]; Table 1, 0.5 mg/kg): 151% | Increased thickness of footpad ([3]; Table 2, 0.5 mg/kg): 13.0 ± 1.13 × 0.1 mm | T/C (%) ([3]; Table 2, 0.5 mg/kg): 149%
